The experiment deals with T1, human PepT1 (SLC15A1) (Homo sapiens, UniProt P46059).
T1 construct: host or cells: MDCK-II
T1 sequence (P46059 1-708): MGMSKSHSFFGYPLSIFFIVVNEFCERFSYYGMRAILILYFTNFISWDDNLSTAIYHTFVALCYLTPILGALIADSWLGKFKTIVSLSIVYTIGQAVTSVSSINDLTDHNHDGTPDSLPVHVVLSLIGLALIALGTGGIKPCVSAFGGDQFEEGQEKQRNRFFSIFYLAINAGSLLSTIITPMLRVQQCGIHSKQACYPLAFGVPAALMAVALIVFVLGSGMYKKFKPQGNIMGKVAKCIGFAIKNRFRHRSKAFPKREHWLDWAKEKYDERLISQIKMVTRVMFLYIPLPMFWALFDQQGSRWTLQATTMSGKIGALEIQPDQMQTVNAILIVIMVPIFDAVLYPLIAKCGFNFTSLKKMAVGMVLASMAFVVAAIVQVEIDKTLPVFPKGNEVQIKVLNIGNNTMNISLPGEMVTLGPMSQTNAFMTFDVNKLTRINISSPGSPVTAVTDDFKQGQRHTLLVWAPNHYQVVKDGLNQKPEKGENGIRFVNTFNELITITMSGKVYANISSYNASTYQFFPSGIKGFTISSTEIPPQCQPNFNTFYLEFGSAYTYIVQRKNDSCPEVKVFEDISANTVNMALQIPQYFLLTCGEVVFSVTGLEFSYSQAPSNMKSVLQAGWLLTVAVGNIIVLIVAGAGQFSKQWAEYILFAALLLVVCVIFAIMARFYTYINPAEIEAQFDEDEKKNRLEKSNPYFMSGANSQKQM
Kind of experiment: Inhibition of PepT1 uptake of probe substrate Gly-Sar in MDCK-II cells. The class given is cell-based. The note with it: probe Gly-Sar 50 µM; positive control losartan 200 µM; pH 5.5. The protocol: Transport studies with human PepT1 (SLC15A1), LAT1 (SLC7A5) and MCT1 (SLC16A1) were conducted in MDCK-II cells expressing the human transporter or control cells expressing a vector with Green Fluorescence Protein. Cells were transfected using a proprietary, transient transfection system (OPTI-EXPRESSION Technology, BioIVT). The results from the control cells were used to correct for substrate permeation by routes other than the transporter being investigated in the study. […] Specifically, Net Transporter Mediated Substrate Uptake (pmol/min/cm^2) = (Cellular accumulation in the presence of the transporter) − (Mean cellular accumulation in the absence of the transporter). MDCK-II cells were maintained in DMEM with low glucose and 10% FBS. Cells were used at passages up to 40 were seeded at 60,000 ± 10,000 cells/well on 96-well plates approximately 24 h before transfection, and transport assays were performed approximately 48 h after transfection. […]
Transport studies with PepT1 were conducted in 96-well cell culture plate with wells containing a monolayer of MDCK-II cells grown on a permeable support and a corresponding 96-well receiver tray. […] Then a 30-µL sample was taken and mixed with 200 µL of scintillation fluid and scintillation counted (1450 Microbeta, Perkin-Elmer). […]

The results in this text go back to publication PMC8338929, “Acetylation turns leucine into a drug by membrane transporter switching” (Scientific Reports, 2021).

For the compound `CC(=O)N[C@@H](CC(C)C)C(=O)O` [N-acetyl-L-leucine], half-maximal inhibition (IC50) was put at 740 µM.
